From PubChem BioAssay AID624028 (Vanderbilt Specialized Chemistry Center, 2012)

Target: Metabotropic glutamate receptor 3 (Rattus norvegicus) (UniProt P31422)
Experiment: PubChem AID 624028
Details: TREx293 mGlu3/Galpha15, calcium fluorescence, antagonist mode

Chain of Metabotropic glutamate receptor 3 (Rattus norvegicus) (P31422 whole entry, looked up): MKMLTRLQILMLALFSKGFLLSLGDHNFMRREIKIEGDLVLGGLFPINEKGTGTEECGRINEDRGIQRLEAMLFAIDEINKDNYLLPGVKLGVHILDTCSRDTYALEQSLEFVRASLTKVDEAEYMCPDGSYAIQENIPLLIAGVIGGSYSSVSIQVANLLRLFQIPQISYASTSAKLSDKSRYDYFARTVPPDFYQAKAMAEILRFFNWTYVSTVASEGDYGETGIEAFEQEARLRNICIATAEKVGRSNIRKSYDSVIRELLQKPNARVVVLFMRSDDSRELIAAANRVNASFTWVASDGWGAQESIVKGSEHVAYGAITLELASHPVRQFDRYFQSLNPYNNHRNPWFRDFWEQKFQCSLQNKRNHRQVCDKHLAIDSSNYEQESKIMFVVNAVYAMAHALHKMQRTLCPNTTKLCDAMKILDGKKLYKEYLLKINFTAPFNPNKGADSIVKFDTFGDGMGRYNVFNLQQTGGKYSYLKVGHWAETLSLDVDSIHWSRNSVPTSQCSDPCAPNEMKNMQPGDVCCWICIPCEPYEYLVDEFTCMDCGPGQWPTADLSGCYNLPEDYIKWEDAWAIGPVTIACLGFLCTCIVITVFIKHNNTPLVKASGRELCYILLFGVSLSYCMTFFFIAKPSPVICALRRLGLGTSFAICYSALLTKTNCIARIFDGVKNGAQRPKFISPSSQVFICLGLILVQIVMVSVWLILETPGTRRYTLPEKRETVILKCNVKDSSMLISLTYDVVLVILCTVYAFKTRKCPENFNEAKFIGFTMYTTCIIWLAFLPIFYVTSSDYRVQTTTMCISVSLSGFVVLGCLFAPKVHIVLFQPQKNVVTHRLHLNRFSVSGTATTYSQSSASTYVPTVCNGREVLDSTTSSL

SMILES: COc1ccc(C#Cc2ccc(C(=O)N3CCC[C@@H](CO)C3)cc2)cc1
- IC50: 650 nM
